Reference: article PMC6364417, “Kinase inhibitor library screening identifies synergistic drug combinations effective in sensitive and resistant melanoma cells” (Journal of Experimental & Clinical Cancer Research : CR, 2019)
Where a name gives a salt, the structure may show the parent alone.

Tests used:
Experiment in all cases: Kinase inhibitor library screening, PrestoBlue cell viability, 1 or 10 μM, 72 h
[1] = test system: A375-XP cells (Vemurafenib-resistant); settings: for viability at 1 µM / viability at 10 µM: Homo sapiens, A-375, 72 h; for viability at 1 µM: read-out: cell viability, A375 XP, 1μΜ; for viability at 10 µM: read-out: cell viability, A375 XP, 10μΜ
[2] = test system: A375-GP cells (Dabrafenib-resistant); settings: for viability at 1 µM / viability at 10 µM: Homo sapiens, A-375, 72 h; for viability at 1 µM: read-out: cell viability, A375 GP, 1μΜ; for viability at 10 µM: read-out: cell viability, A375 GP, 10μΜ
A375 cells (parental) = settings: for viability at 1 µM / viability at 10 µM: Homo sapiens, A-375, 72 h; for viability at 1 µM: read-out: cell viability, A375 Parental, 1μΜ; for viability at 10 µM: read-out: cell viability, A375 Parental, 10μΜ
501Mel cells (parental) = settings: 72 h; for viability at 1 µM / viability at 10 µM: Homo sapiens; for viability at 1 µM: read-out: cell viability, 501Mel Parental, 1μΜ; for viability at 10 µM: read-out: cell viability, 501Mel Parental, 10μΜ
Method in brief: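 Sensitive parental cells and their resistant derivatives were exposed to library compounds for 72 h. Values represent viability as a percentage of untreated cells.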

[3] = test system: 501Mel-XP cells (Vemurafenib-resistant); settings: 72 h; for viability at 1 µM / viability at 10 µM: Homo sapiens; for viability at 1 µM: read-out: cell viability, 501Mel XP, 1μΜ; for viability at 10 µM: read-out: cell viability, 501Mel XP, 10μΜ
[4] = test system: IGR37-GP cells (Dabrafenib-resistant); settings: for viability at 1 µM / viability at 10 µM: Homo sapiens, IGR-37, 72 h; for viability at 1 µM: read-out: cell viability, IGR37 GP, 1μΜ; for viability at 10 µM: read-out: cell viability, IGR37 GP, 10μΜ
IGR37 cells (parental) = settings: for viability at 1 µM / viability at 10 µM: Homo sapiens, IGR-37, 72 h; for viability at 1 µM: read-out: cell viability, IGR37 Parental, 1μΜ; for viability at 10 µM: read-out: cell viability, IGR37 Parental, 10μΜ
[5] = test system: IGR37-XP cells (Vemurafenib-resistant); settings: for viability at 1 µM / viability at 10 µM: Homo sapiens, IGR-37, 72 h; for viability at 1 µM: read-out: cell viability, IGR37 XP, 1μΜ; for viability at 10 µM: read-out: cell viability, IGR37 XP, 10μΜ
[6] = test system: 501Mel-GP cells (Dabrafenib-resistant); settings: 72 h; for viability at 1 µM / viability at 10 µM: Homo sapiens; for viability at 1 µM: read-out: cell viability, 501Mel GP, 1μΜ; for viability at 10 µM: read-out: cell viability, 501Mel GP, 10μΜ

Cc1cc(Nc2cc(N3CCN(C)CC3)nc(/C=C/c3ccccc3)n2)n[nH]1 [ENMD-2076]
viability at 1 µM [1]: 79.9%
viability at 10 µM [1]: 19.2%
viability at 1 µM [2]: 65.8%
viability at 10 µM [2]: 20.9%
viability at 1 µM (A375 cells (parental)): 67.6%
viability at 10 µM (A375 cells (parental)): 21.2%
viability at 1 µM (501Mel cells (parental)): 97%
viability at 10 µM (501Mel cells (parental)): 3.4%
viability at 1 µM [3]: 69.3%
viability at 10 µM [3]: 1.1%
viability at 1 µM [4]: 90.4%
viability at 10 µM [4]: 5.2%
viability at 1 µM (IGR37 cells (parental)): 96.5%
viability at 10 µM (IGR37 cells (parental)): 25.6%
viability at 1 µM [5]: 89.3%
viability at 10 µM [5]: 2.2%
viability at 1 µM [6]: 99.4%
viability at 10 µM [6]: 25.5%

Cn1cc(C2=C(c3cn(C4CCN(Cc5ccccn5)CC4)c4ccccc34)C(=O)NC2=O)c2ccccc21 [Enzastaurin (LY317615)]
Cell viability in kinase inhibitor library screening, A375 XP, 1μΜ ([1]; A375 XP, 1μΜ, 72 h): 103.5
Cell viability in kinase inhibitor library screening, A375 XP, 10μΜ ([1]; A375 XP, 10μΜ, 72 h): 66.7
Cell viability in kinase inhibitor library screening, A375 GP, 1μΜ ([2]; A375 GP, 1μΜ, 72 h): 97.4
Cell viability in kinase inhibitor library screening, A375 GP, 10μΜ ([2]; A375 GP, 10μΜ, 72 h): 58.1
Cell viability in kinase inhibitor library screening, A375 Parental, 10μΜ (A375 cells (parental); A375 Parental, 10μΜ, 72 h): 55.3
Cell viability in kinase inhibitor library screening, A375 Parental, 1μΜ (A375 cells (parental); A375 Parental, 1μΜ, 72 h): 99.1
Cell viability in kinase inhibitor library screening, 501Mel Parental, 1μΜ (501Mel cells (parental); 501Mel Parental, 1μΜ, in %): 78.4
Cell viability in kinase inhibitor library screening, 501Mel Parental, 10μΜ (501Mel cells (parental); 501Mel Parental, 10μΜ, in %): 63.8
Cell viability in kinase inhibitor library screening, 501Mel XP, 1μΜ ([3]; 501Mel XP, 1μΜ, in %): 85.4
Cell viability in kinase inhibitor library screening, 501Mel XP, 10μΜ ([3]; 501Mel XP, 10μΜ, in %): 48.1
Cell viability in kinase inhibitor library screening, IGR37 GP, 10μΜ ([4]; IGR37 GP, 10μΜ, 72 h): 58.7%
Cell viability in kinase inhibitor library screening, IGR37 GP, 1μΜ ([4]; IGR37 GP, 1μΜ, 72 h, in %): 100.0
Cell viability in kinase inhibitor library screening, IGR37 Parental, 10μΜ (IGR37 cells (parental); IGR37 Parental, 10μΜ, 72 h, in %): 82.6
Cell viability in kinase inhibitor library screening, IGR37 XP, 10μΜ ([5]; IGR37 XP, 10μΜ, 72 h): 31.7%
Cell viability in kinase inhibitor library screening, IGR37 XP, 1μΜ ([5]; IGR37 XP, 1μΜ, 72 h, in %): 98.3
Cell viability in kinase inhibitor library screening, 501Mel GP, 1μΜ ([6]; 501Mel GP, 1μΜ, in %): 92.5
Cell viability in kinase inhibitor library screening, 501Mel GP, 10μΜ ([6]; 501Mel GP, 10μΜ, in %): 54.6

C#Cc1cccc(Nc2ncnc3cc(OCCOC)c(OCCOC)cc23)c1 [Erlotinib HCl]
viability at 1 µM [1]: 100%
viability at 10 µM [1]: 83.4%
viability at 1 µM [2]: 96.2%
viability at 10 µM [2]: 69.1%
viability at 1 µM (A375 cells (parental)): 100%
viability at 10 µM (A375 cells (parental)): 73.4%
viability at 1 µM (501Mel cells (parental)): 97.2%
viability at 10 µM (501Mel cells (parental)): 84.3%
viability at 1 µM [3]: 86.3%
viability at 10 µM [3]: 38%
viability at 1 µM [4]: 93.1%
viability at 10 µM [4]: 67.5%
viability at 1 µM (IGR37 cells (parental)): 95.5%
viability at 10 µM (IGR37 cells (parental)): 92%
viability at 1 µM [5]: 92.4%
viability at 10 µM [5]: 51.9%
viability at 1 µM [6]: 95%
viability at 10 µM [6]: 61.2%

CN1CC[C@H](c2c(O)cc(O)c3c(=O)cc(-c4ccccc4Cl)oc23)[C@H](O)C1 [Flavopiridol hydrochloride]
cell viability (kinase inhibitor library screening) ([1]; A375 XP, 1μΜ, 72 h): 5.6%
cell viability (kinase inhibitor library screening) ([1]; A375 XP, 10μΜ, 72 h): 5.1%
cell viability (kinase inhibitor library screening) ([2]; A375 GP, 1μΜ, 72 h): 4.6%
cell viability (kinase inhibitor library screening) ([2]; A375 GP, 10μΜ, 72 h): 3.0%
cell viability (kinase inhibitor library screening) (A375 cells (parental); A375 Parental, 10μΜ, 72 h): 7.2%
cell viability (kinase inhibitor library screening) (A375 cells (parental); A375 Parental, 1μΜ, 72 h): 7.0%
cell viability (kinase inhibitor library screening) (501Mel cells (parental); 501Mel Parental, 1μΜ): 1.1%
cell viability (kinase inhibitor library screening) (501Mel cells (parental); 501Mel Parental, 10μΜ): 1.3%
cell viability (kinase inhibitor library screening) ([3]; 501Mel XP, 1μΜ): 0.473%
cell viability (kinase inhibitor library screening) ([3]; 501Mel XP, 10μΜ): 0.3%
cell viability (kinase inhibitor library screening) ([4]; IGR37 GP, 1μΜ, 72 h): 4.5%
cell viability (kinase inhibitor library screening) ([4]; IGR37 GP, 10μΜ, 72 h): 3.8%
cell viability (kinase inhibitor library screening) (IGR37 cells (parental); IGR37 Parental, 1μΜ, 72 h): 2.2%
cell viability (kinase inhibitor library screening) (IGR37 cells (parental); IGR37 Parental, 10μΜ, 72 h): 2.2%
cell viability (kinase inhibitor library screening) ([5]; IGR37 XP, 1μΜ, 72 h): 2.9%
cell viability (kinase inhibitor library screening) ([5]; IGR37 XP, 10μΜ, 72 h): 3.2%
cell viability (kinase inhibitor library screening) ([6]; 501Mel GP, 1μΜ): 0.662%
cell viability (kinase inhibitor library screening) ([6]; 501Mel GP, 10μΜ): 0.4%
